Measurements taken from publication PMC6978363, “Chaperone mediated detection of small molecule target binding in cells” (Nature Communications, 2020).

Columns and labels:
Assay in all cases: biochemical
Conditions in all cases: read-out: % Inhibition (at 10mM)
PRKAA1_B2_G3 = biological target: T1, PRKAA1_B2_G3 (Homo sapiens, UniProt Q13131)
T1 construct: gene PRKAA1

CDK2/cyclinA = CDK2/cyclinA (Homo sapiens, UniProt P24941)
InsR = InsR (Homo sapiens, UniProt P06213)
MARK1 = MARK1 (Homo sapiens, UniProt Q9P0L2)
p38_gamma = biological target: T2, p38_gamma (Homo sapiens, UniProt P53778)
T2 construct: gene MAPK12

Aurora_B = biological target: T3, Aurora_B (Homo sapiens, UniProt Q96GD4)
T3 construct: gene AURKB

CDK1/cyclinB = CDK1/cyclinB (Homo sapiens, UniProt P06493)
Abl = biological target: T4, Abl (Homo sapiens, UniProt P00519)
T4 construct: gene ABL1

MRCK_beta = biological target: T5, MRCK_beta (Homo sapiens, UniProt Q9Y5S2)
T5 construct: gene CDC42BPB

PAK6 = PAK6 (Homo sapiens, UniProt Q9NQU5)
MAPKAPK3 = MAPKAPK3 (Homo sapiens, UniProt Q16644)
PRKAA2 = PRKAA2 (Homo sapiens, UniProt P54646)
CaMKI_delta = biological target: T6, CaMKI_delta (Homo sapiens, UniProt Q8IU85)
T6 construct: gene CAMK1D

GRK2 = GRK2 (Homo sapiens, UniProt P25098)
CSK = CSK (Homo sapiens, UniProt P41240)
CHK1 = biological target: T7, CHK1 (Homo sapiens, UniProt O14757)
T7 construct: gene CHEK1

Ros = biological target: T8, Ros (Homo sapiens, UniProt P08922)
T8 construct: gene ROS1

MYLK2(skMLCK) = MYLK2(skMLCK) (Homo sapiens, UniProt Q9H1R3)
TSSK2 = TSSK2 (Homo sapiens, UniProt Q96PF2)
ERK1 = biological target: T9, ERK1 (Homo sapiens, UniProt P27361)
T9 construct: gene MAPK3

PKD1 = biological target: T10, PKD1 (Homo sapiens, UniProt Q15139)
T10 construct: gene PRKD1

EphB2 = EphB2 (Homo sapiens, UniProt P29323)
MKNK1 = MKNK1 (Homo sapiens, UniProt Q9BUB5)
Src = Src (Homo sapiens, UniProt P12931)
SIK2 = SIK2 (Homo sapiens, UniProt Q9H0K1)
BrSK1 = BrSK1 (Homo sapiens, UniProt Q8TDC3)
SGK1 = SGK1 (Homo sapiens, UniProt O00141)
PAK1 = PAK1 (Homo sapiens, UniProt Q13153)
MARK3 = MARK3 (Homo sapiens, UniProt P27448)
TrkA = biological target: T11, TrkA (Homo sapiens, UniProt P04629)
T11 construct: gene NTRK1

PhK_gamma2 = biological target: T12, PhK_gamma2 (Homo sapiens, UniProt P15735)
T12 construct: gene PHKG2

PDGFR_beta = biological target: T13, PDGFR_beta (Homo sapiens, UniProt P09619)
T13 construct: gene PDGFRB

MST4 = biological target: T14, MST4 (Homo sapiens, UniProt Q9P289)
T14 construct: gene STK26

Kit = Kit (Homo sapiens, UniProt P10721)
GRK3 = GRK3 (Homo sapiens, UniProt P35626)
GRK7 = GRK7 (Homo sapiens, UniProt Q8WTQ7)
JAK3 = JAK3 (Homo sapiens, UniProt P52333)
PKG2 = biological target: T15, PKG2 (Homo sapiens, UniProt Q13237)
T15 construct: gene PRKG2

T6 sequence (Q8IU85 whole entry): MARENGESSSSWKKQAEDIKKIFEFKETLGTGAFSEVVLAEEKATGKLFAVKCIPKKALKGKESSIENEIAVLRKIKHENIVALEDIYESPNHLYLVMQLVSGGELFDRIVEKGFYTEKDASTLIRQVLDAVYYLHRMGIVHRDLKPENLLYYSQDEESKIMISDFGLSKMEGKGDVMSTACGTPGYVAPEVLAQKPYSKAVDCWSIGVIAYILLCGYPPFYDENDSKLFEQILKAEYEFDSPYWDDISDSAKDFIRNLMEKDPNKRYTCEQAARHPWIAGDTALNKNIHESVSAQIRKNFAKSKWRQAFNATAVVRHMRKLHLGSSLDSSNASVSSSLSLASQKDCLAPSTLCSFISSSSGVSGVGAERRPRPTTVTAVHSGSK
Chain of GRK7 (Q8WTQ7 whole entry): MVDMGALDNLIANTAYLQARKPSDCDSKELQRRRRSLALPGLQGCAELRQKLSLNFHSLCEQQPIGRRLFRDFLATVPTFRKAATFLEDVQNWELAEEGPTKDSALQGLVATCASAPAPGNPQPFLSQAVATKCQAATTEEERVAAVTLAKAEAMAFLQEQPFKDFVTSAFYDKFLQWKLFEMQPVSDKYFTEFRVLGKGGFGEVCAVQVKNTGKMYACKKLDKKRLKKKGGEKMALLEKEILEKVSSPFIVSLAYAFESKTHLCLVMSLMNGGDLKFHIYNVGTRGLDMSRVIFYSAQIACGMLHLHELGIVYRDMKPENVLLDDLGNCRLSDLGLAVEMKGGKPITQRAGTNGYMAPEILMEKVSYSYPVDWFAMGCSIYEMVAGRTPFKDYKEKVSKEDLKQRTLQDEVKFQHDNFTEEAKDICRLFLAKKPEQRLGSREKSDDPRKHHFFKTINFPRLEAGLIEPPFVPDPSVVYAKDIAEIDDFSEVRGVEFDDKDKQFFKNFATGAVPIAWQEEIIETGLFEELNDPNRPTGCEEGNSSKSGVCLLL
T9 sequence (P27361 whole entry): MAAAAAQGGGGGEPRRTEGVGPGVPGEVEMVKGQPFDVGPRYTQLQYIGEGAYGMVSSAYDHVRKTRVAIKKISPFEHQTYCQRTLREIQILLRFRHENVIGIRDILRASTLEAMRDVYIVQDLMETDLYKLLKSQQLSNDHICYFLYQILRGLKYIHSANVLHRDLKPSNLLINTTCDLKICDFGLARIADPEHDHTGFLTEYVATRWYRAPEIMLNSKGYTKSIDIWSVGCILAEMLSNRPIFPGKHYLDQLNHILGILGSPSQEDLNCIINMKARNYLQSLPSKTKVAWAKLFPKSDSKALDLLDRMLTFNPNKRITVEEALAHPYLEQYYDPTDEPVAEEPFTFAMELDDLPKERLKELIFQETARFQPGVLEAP
T10 sequence (Q15139 whole entry): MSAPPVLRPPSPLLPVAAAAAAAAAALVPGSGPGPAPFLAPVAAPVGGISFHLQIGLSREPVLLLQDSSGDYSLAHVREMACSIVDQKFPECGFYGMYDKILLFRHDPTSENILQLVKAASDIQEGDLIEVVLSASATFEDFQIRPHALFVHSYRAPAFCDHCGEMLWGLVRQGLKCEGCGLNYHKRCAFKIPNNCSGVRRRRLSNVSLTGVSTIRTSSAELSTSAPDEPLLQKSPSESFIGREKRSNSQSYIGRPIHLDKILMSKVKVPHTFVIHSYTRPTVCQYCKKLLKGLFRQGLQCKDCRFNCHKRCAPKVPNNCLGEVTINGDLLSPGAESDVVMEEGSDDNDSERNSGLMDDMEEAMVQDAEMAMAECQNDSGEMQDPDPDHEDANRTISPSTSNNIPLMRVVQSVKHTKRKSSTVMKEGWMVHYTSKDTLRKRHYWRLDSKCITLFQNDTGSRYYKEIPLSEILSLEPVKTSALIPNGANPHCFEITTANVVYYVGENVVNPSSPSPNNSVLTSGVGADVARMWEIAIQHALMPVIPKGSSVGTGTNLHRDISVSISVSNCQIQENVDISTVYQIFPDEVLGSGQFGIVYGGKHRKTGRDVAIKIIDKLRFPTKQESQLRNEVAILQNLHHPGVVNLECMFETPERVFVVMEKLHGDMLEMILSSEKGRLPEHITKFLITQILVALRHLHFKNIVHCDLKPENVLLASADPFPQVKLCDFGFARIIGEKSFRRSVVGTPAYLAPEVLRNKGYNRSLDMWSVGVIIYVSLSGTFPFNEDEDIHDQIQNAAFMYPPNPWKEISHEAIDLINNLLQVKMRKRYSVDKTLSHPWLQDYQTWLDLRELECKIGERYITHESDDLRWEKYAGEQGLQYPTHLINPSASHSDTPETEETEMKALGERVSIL
T1 sequence (Q13131 whole entry): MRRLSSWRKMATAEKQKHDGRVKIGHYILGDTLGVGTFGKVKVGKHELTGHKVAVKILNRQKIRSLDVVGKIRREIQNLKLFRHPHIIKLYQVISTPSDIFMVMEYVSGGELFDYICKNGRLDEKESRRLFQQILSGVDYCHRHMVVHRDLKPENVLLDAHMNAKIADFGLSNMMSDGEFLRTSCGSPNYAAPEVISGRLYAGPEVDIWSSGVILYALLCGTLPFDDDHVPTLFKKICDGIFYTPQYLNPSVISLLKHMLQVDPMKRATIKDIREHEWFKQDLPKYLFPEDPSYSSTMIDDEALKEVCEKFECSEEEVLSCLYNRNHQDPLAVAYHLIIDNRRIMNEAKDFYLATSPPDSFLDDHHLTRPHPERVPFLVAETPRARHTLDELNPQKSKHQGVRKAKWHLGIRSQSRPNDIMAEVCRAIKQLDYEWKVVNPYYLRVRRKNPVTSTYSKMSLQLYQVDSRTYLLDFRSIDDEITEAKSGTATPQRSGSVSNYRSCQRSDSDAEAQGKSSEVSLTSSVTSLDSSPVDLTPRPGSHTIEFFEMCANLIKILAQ
T1 sequence (O43741 whole entry partner): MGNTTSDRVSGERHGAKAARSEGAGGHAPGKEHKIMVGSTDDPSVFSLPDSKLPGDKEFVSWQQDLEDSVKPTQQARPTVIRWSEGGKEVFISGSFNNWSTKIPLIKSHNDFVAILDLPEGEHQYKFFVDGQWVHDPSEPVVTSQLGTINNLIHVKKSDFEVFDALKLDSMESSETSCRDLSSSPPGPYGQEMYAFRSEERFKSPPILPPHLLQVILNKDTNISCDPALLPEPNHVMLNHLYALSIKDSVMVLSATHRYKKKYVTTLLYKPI
T1 sequence (Q9UGI9 whole entry partner): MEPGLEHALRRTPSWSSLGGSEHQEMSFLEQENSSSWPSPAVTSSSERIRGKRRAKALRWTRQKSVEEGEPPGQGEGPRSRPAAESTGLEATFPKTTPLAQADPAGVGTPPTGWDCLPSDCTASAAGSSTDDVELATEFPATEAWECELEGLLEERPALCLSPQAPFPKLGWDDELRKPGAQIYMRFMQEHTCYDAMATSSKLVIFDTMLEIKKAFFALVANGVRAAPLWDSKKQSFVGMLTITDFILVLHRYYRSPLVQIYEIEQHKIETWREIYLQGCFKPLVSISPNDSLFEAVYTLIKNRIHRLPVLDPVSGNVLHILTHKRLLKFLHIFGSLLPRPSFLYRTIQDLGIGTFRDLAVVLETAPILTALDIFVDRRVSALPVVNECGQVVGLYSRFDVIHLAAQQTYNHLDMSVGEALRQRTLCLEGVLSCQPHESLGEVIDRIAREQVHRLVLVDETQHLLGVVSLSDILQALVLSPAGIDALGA
T12 sequence (P15735 whole entry): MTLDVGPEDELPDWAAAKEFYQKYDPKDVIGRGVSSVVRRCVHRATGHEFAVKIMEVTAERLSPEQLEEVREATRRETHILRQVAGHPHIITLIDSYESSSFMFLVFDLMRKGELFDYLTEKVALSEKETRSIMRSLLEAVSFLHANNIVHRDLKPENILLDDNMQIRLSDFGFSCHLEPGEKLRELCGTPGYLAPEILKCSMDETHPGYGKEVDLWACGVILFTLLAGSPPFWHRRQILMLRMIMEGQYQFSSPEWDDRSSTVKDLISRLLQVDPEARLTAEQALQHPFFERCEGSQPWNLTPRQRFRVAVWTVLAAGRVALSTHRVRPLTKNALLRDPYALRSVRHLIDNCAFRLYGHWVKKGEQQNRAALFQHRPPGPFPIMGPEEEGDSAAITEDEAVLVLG
Chain of BrSK1 (Q8TDC3 whole entry): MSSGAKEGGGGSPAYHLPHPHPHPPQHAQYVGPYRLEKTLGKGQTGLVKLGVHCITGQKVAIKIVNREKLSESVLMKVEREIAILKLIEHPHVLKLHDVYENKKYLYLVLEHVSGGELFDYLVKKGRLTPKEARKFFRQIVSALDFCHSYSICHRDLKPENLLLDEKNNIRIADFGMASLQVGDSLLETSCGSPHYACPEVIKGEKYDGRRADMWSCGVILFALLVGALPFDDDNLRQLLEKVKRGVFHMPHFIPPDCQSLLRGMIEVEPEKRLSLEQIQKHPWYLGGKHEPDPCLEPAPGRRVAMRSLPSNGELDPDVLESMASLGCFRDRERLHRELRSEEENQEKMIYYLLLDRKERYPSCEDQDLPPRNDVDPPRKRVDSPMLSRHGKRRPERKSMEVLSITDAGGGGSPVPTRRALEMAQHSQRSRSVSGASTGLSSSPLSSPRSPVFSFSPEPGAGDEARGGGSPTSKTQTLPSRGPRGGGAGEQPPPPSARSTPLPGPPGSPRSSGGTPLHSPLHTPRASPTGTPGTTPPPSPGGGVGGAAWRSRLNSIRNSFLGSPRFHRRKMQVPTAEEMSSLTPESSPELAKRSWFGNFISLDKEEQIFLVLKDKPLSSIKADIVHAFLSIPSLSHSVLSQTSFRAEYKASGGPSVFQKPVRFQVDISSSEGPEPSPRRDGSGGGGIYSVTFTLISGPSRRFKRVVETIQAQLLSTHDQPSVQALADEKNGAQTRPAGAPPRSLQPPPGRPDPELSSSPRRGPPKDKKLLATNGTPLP

Compound: CC(C)(O)CC(=O)NCCn1ccc2ncnc(Nc3ccc(Oc4cccc(C(F)(F)F)c4)c(Cl)c3)c21 [TAK-285]
- inhibition (PRKAA1_B2_G3): 0.5%
- inhibition (CDK2/cyclinA): 4.5%
- inhibition (InsR): 9.5%
- inhibition (MARK1): 10%
- inhibition (p38_gamma): 12.5%
- inhibition (Aurora_B): 68%
- inhibition (CDK1/cyclinB): 0.5%
- inhibition (Abl): 9%
- inhibition (MRCK_beta): 1.5%
- inhibition (PAK6): 5.5%
- inhibition (MAPKAPK3): 14.5%
- inhibition (PRKAA2): 10.5%
- inhibition (CaMKI_delta): 0%
- inhibition (GRK2): 0%
- inhibition (CSK): 56.5%
- inhibition (CHK1): 4.5%
- inhibition (Ros): 7.5%
- inhibition (MYLK2(skMLCK)): -3%
- inhibition (TSSK2): 10.5%
- inhibition (ERK1): 3%
- inhibition (PKD1): 76%
- inhibition (EphB2): 12%
- inhibition (MKNK1): 6%
- inhibition (Src): 37.5%
- inhibition (SIK2): 9.5%
- inhibition (BrSK1): 5%
- inhibition (SGK1): 2%
- inhibition (PAK1): 16%
- inhibition (MARK3): 6.5%
- inhibition (TrkA): 29%
- inhibition (PhK_gamma2): -0.5%
- inhibition (PDGFR_beta): -4%
- inhibition (MST4): -2.5%
- inhibition (Kit): -1.5%
- inhibition (GRK3): -5.5%
- inhibition (GRK7): 5.5%
- inhibition (JAK3): 2%
- inhibition (PKG2): -11%
